Test results as given in publication PMC10892093 (Pharmaceutics, 2024).

Columns and labels:
UGT2B15 = target: T1, UGT2B15 (Homo sapiens, UniProt P54855); test: Inhibition of S-oxazepam glucuronidation in rUGT2B15 homogenate/microsomes (UGT-overexpressing HEK293); assay type: biochemical
T1 construct: expressed in transfected cells; cell homogenate
T1 sequence (P54855 24-530): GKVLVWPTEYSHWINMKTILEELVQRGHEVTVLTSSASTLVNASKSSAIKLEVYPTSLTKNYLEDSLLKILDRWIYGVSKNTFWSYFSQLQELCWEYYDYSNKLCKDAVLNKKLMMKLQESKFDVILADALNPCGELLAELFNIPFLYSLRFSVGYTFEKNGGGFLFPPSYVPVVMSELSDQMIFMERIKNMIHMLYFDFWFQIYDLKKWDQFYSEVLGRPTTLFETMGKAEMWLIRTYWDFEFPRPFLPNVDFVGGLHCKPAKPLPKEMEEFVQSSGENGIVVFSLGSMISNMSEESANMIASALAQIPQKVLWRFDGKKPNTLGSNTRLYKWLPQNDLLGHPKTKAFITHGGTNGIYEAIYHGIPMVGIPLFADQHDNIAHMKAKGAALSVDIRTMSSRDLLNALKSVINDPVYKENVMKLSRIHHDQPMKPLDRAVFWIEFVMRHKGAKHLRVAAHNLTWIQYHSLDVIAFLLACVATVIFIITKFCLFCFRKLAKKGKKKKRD
Procedure: (§1) Human embryonic kidney cells (HEK293) stably overexpressing the single UGTs 1A9, 2B7, and 2B15 have been previously established and described. Cells were grown in DMEM supplemented with 350 μg/mL of geneticin and 10% FBS and harvested in PBS. Microsomal fractions of UGT-overexpressing cell lines were prepared by differential centrifugation using previously described protocols. Briefly, cell homogenates were prepared by resuspending pelleted cells in PBS, followed by five rounds of freeze–thaw cycles prior to homogenization. Recombinant microsomes (rUGTs) were prepared by centrifuging the cell homogenate at a low speed (9000× g for 30 min) followed by ultracentrifugation (34,000× g for 60 min), with the total protein subsequently determined using a BCA assay. Recombinant microsomes (UGT1A9 and 2B7) and homogenates (UGT2B15) were used for inhibition studies.
(§2) A Waters Corp BEH C18 Acquity UPLC column (1.7 µM, 2.1 × 100 mm) was used at a constant temperature of 40 °C for chromatographic separation. An elution gradient was used for 6.5 min with mobile phases A (5 mM ammonium formate) and B (100% methanol) under the following conditions: 90% A for 0.5 min, followed by a linear gradient for 3 min to 60% A, 1 min at 5% A, and re-equilibration for 1 min at 90% A.
(§3) The reaction was initiated by the addition of 4 mM UDPGA as the cofactor and incubated for 2 h at 37 °C. The reaction was terminated by adding 30 µL of an ice-cold stop solution (acetonitrile/methanol; 1:1). The reaction mixtures were centrifuged at 17,000× g for 30 min at 4 °C, and the supernatant was transferred to UPLC sample glass vial for analysis using UPLC–MS/MS (described above). […] As a positive control for inhibition assays, ketoconazole (10 μM and 100 µM) was used as a potential inhibitor of the UGTs 1A9, 2B7, and 2B15. Reactions containing only the cannabinoid vehicle (3% methanol) and without any inhibitor (cannabinoids) were used as a baseline reaction for 100% enzyme activity, while a reaction without UDPGA was used as a negative control. All experiments were performed in three independent experiments.
(§4) Determination of IC50 and Ki Values. […] The nonspecific binding constants (fu,inc) for cannabinoids in HEK293 microsomes, HLM, and HKM were previously determined and used to calculate the inhibition by unbound (‘free’) cannabinoid in each reaction. A nonlinear regression analysis and the following equation were used to calculate the IC50 values:(1) y = Bottom +Top − Bottom / 1 + 10^x − LogIC50A where ‘Bottom’ is the maximum observed inhibition (lowest percent activity) and ‘Top’ is the minimum observed inhibition (highest percent activity) for a given cannabinoid.

[1] = test system: human kidney microsomes (HKM); test: Inhibition of R- and S-oxazepam glucuronidation in human kidney microsomes; settings: read-out: IC50, oxazepam glucuronidation (marginal or no inhibition)
Procedure: as §2, §3, §4

UGT2B7 = target: T2, UGT2B7 (Homo sapiens, UniProt P16662); test: Inhibition of R- and S-oxazepam glucuronidation in rUGT2B7 microsomes (UGT-overexpressing HEK293); assay type: biochemical
T2 construct: expressed in transfected cells; microsomal fraction
T2 sequence (P16662 24-529): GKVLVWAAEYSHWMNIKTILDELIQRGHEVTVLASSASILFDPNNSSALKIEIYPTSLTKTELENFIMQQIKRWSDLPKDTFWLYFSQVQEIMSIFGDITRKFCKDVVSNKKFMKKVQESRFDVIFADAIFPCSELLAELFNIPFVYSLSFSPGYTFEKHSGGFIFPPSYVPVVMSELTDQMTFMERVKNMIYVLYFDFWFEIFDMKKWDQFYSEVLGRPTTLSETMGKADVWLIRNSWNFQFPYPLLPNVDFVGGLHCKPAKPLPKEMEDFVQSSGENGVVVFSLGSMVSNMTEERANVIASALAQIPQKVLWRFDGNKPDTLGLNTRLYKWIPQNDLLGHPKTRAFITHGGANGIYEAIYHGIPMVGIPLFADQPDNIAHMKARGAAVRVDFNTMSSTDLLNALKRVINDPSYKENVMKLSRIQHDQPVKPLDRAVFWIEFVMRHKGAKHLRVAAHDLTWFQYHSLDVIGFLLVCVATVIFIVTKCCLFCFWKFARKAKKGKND
Procedure: as §1, §2, §3, §4

UGT1A9 = target: T3, UGT1A9 (Homo sapiens, UniProt O60656); test: Inhibition of R-oxazepam glucuronidation in rUGT1A9 microsomes (UGT-overexpressing HEK293); assay type: biochemical
T3 construct: expressed in transfected cells; microsomal fraction
T3 sequence (O60656 26-530): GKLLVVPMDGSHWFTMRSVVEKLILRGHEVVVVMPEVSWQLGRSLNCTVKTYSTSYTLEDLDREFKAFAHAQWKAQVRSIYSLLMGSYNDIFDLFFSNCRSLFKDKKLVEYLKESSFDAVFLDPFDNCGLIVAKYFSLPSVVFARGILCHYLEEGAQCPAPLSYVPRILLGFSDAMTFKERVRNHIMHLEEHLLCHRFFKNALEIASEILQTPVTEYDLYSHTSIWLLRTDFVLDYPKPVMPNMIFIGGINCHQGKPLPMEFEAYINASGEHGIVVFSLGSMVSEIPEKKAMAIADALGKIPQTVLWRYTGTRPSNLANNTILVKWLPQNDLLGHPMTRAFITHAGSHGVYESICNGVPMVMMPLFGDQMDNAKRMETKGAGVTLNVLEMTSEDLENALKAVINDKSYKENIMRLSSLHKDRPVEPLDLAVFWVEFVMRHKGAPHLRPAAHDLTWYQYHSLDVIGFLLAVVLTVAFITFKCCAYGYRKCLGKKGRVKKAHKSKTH
Procedure: as §1, §2, §3, §4

[2] = test system: human liver microsomes (HLM); test: Inhibition of R- and S-oxazepam glucuronidation in human liver microsomes; settings: read-out: IC50, oxazepam glucuronidation (marginal or no inhibition)
Procedure: as §2, §3, §4
The inhibition constant (Ki) was generated from the in vitro IC50 values assuming competitive inhibition (based on the Cheng–Prusoff equation; [49]). Considering that there have been no reports of the irreversible inhibition (e.g., mechanism-based inhibition) of UGTs, competitive inhibition was assumed as the worst-case scenario (highest inhibition) among all feasible types of reversible inhibitions. The substrate concentration used in the incubations was below the reported Km; therefore, the Ki values were predicted using Equation (2):(2) Ki=IC50/S/Km+1 where Km is Michaelis–Menten constant for the substrate, S is the substrate concentration, and IC50 is half-maximal inhibitory concentration.

[3] = value set for the static model; cited from earlier work
[4] = rUGT2B7 microsomes, 100 µM cannabinoid

Question: What does the source list for CCCCCc1cc(O)c2c(c1)OC(C)(C)[C@@H]1CCC(C(=O)O)=C[C@@H]21 [11-COOH-THC, 11-nor-9-carboxy-Δ^9-tetrahydrocannabinol]?
Answer: IC50 (UGT2B15; read-out: IC50, oxazepam glucuronidation (marginal or no inhibition), recombinant UGT microsomes (rUGT2B15)): > 100 µM; IC50 [1]: > 100 µM; Inhibition of R-oxazepam glucuronidation (UGT2B7; [4]): 45%; Inhibition of S-oxazepam glucuronidation (UGT2B7; [4]): 55%; IC50 (UGT2B7; read-out: IC50, oxazepam glucuronidation (marginal or no inhibition), recombinant UGT microsomes (rUGT2B7)): > 100 µM; Inhibition of R-oxazepam glucuronide formation (UGT1A9; rUGT1A9 microsomes, 100 µM cannabinoid, vs control without cannabinoid): 80%; IC50 (UGT1A9; read-out: IC50, oxazepam glucuronidation (marginal or no inhibition), recombinant UGT microsomes (rUGT1A9)): > 100 µM; IC50 [2]: > 100 µM

Question: Which inhibition at 2 h, 100 µM (UGT2B15; human, pH 7.4, probe R,S-oxazepam 12 µM, oxazepam glucuronide formation, rUGT2B15 microsomes, 100 µM ketoconazole, range over the three enzymes) does the source give for CC(=O)N1CCN(c2ccc(OCC3COC(Cn4ccnc4)(c4ccc(Cl)cc4Cl)O3)cc2)CC1 (stereo not drawn) [ketoconazole] here?
Answer: 49 to 85%

Question: What about the inhibition at 2 h, 100 µM (UGT2B7; human, pH 7.4, probe R,S-oxazepam 60 µM, oxazepam glucuronide formation, Inhibition of oxazepam glucuronide formation, rUGT2B7 microsomes, 100 µM ketoconazole, range over the three enzymes) of the same compound?
Answer: 49 to 85%

Question: And the inhibition at 2 h, 100 µM (UGT1A9; human, pH 7.4, probe R,S-oxazepam 4 µM, oxazepam glucuronide formation, rUGT1A9 microsomes, 100 µM ketoconazole, range over the three enzymes)?
Answer: 49 to 85%

Question: Which “fm (fractional metabolism via glucuronidation)” value [3] does the source give for O=C1Nc2ccc(Cl)cc2C(c2ccccc2)=NC1O (stereo not drawn) [oxazepam, Oxazepam] here?
Answer: 0.8
